This note sets out measurements from US20060199876A1, “Bioceramic composite coatings and process for making same” (The University of British Columbia, priority 2005, published 2006).

The nature of the series: Drug release from PCMC composite coating with PLGA diffusion barrier. The class given is physicochemical. The settings on record: release from HAP/PLGA PCMC coating of Example 9 (paclitaxel in HAP phase, Rapamycin in polymer phase) covered with 2 μm thick PLGA (85:15) layer. The method, then: Porous HAP coating was deposited on stent as in the above Example 2. The HAP porous coating stents was impregnated into 2 wt % paclitaxel methanol solution for 20 min and then removed extra solution by high speed spinning, then dried in an oven for 2 hours. The paclitaxel was filled into mesopores and partial into large pore micropores. The paclitaxel loaded stents were subsequently impregnated with 10 wt % PLGA acetone solution containing 2 wt % Rapamycin and then the extra solution removed by spinning. The biopolymer PLGA filled inside pores provides extra flexibility for HAP coatings and diffusion barrier for controlling drug release profiles. Rapamycin in the polymer phase will release much faster than that of paclitaxel only in the HAP phase.
As illustrated in the above Example 9, different drugs were encapsulated into the polymer and HAP phases. In order to add further controls for drug release profile, e.g. to further slow down the drug release rate, a functional diffusion barrier was deposited on the surface of the composite PCMC coating. In this particular example, a 2 μm thick PLGA (85:15) layer was deposited on the PCMC surface by spin-coating. Rapamycin release from such modified PCMC coating was sustained for 3-5 months and paclitaxel for 6-12 months.

`CC(=O)O[C@H]1C(=O)[C@@]2(C)[C@H]([C@H](OC(=O)c3ccccc3)[C@]3(O)C[C@H](OC(=O)[C@H](O)[C@@H](NC(=O)c4ccccc4)c4ccccc4)C(C)=C1C3(C)C)[C@]1(OC(C)=O)CO[C@@H]1C[C@@H]2O` [paclitaxel]: the “drug release sustained for” value is 6-12 months.
